In patent publication US11185514B2, “Aqueous solution comprising a polyphenol” (OPTERION Health AG, priority 2015, dated 2021):
Converted amounts (≈) assume the structure as drawn.

Assays:
[1] = Stability after one hour stirring at RT as a function of glucose or icodextrin concentration in salt solution at pH 3 or pH 7 (Example 1); type: physicochemical; conditions: pH of 3 to 3.5
Experimental: For analysis R and P and their impurities were separated by a C-18 column with a gradient system and UV-detection at 306 nm. Solubility and stability of Resveratrol and […] after one hour stirring at RT, as a function of glucose or icodextrin concentration in a solution, containing 5.4 g/L NaCl, 4.5 g/L NaLactate, 0.275 g/L CaCl2, and 0.051 g/L MgCl2, buffered at pH 3 or pH 7. Solubility was measured after one hour stirring at room temperature, in presence of excess solute, followed by filtering.

[2] = Solubility in commercial peritoneal dialysis solutions (Medium B, E, F), 5 minutes to 12 hours stirring (Example 2); type: physicochemical; conditions: for P in Medium B found: Medium B (106.5 g/L anhydrous glucose, pH 3.5); for P in Medium B found / P in Medium E found / P in Medium F found: room temperature; for P in Medium E found: Medium E (75 g/L Icodextrin, pH 3); for P in Medium F found: Medium F (30 g/L anhydrous glucose, pH 3)
Experimental: (§1) Solubility studies were carried out commercially available peritoneal dialysis solutions Fresenius Safestay® 1.5% glucose, Baxter Physioneal® 3.86% glucose and Baxter Extraneal® (7.5% icodextrin), precisely in acidic glucose solutions, such as applied in two compartiment peritoneal dialysis applications Stay Safe® and Physioneal®, as well as in Extraneal® Solution that had previously been acidified to pH3. Medium B (117.14 g/L glucose monohydrate (equivalent to 106.5 g/L anhydrous glucose), 0.507 g/L Calcium chloride dihydrate, 0.140 g/L Magnesium chloride hexahydrate, measured pH 3.5), Medium E (75 g/L Icodextrin, 5.35 g/L Sodium Chloride, 4.48 g/L Sodium Lactate, 257 mg/L Calcium Chloride USP, 50.8 mg/L Magnesium Chloride USP, adjusted to pH 3 in our lab), and Medium F (30 g/L anhydrous glucose, 11.279 g/L Sodium chloride, 0.3675 g/L Calcium chloride dihydrate, 0.2033 g/L Magnesium chloride hexahydrate, measured pH 3).
Solubility was measured after 5 minutes to 12 hours stirring at room temperature, in presence of excess solute, followed by filtering.
Solubility was measured after one hour or 12 hours stirring at room temperature, in presence of excess solute, followed by filtering.

[3] = Solubility after one hour stirring at RT as a function of glucose or icodextrin concentration in salt solution at pH 3 or pH 7 (Example 1); type: physicochemical; conditions: 0% glucose or icodextrin
Experimental: Concentrations of stilbenoid in the present invention are measured after 1 hour stirring at room temperature, which is preferably 20-23° C., more preferably 22°. So, stilbenoid concentrations correspond to measured solubility after 1 hour stirring at room temperature. Concentration is measured in aqueous solution, comprising the stilbenoid and the at least one saccharide. If not specifically indicated, or if not specifically indicated otherwise, the time of stirring is one hour. In some cases, other stirring times are indicated, such as 12 hours. […] With increasing concentrations of saccharides, less variations were observed. This is highly beneficial for pharmacological formulations. For analysis R and P and their impurities were separated by a C-18 column with a gradient system and UV-detection at 306 nm. Solubility and stability of Resveratrol and […] after one hour stirring at RT, as a function of glucose or icodextrin concentration in a solution, containing 5.4 g/L NaCl, 4.5 g/L NaLactate, 0.275 g/L CaCl2, and 0.051 g/L MgCl2, buffered at pH 3 or pH 7. Solubility was measured after one hour stirring at room temperature, in presence of excess solute, followed by filtering.

[4] = Stability of Resveratrol in commercial dialysis solutions during autoclavation (Example 4); type: physicochemical
Experimental: For analysis R and P and their impurities were separated by a C-18 column with a gradient system and UV-detection at 306 nm.
as §1
Stability of Resveratrol in commercial dialysis solutions during autoclavation. Experiment was carried out in previous defined media B, E and F. 25 mg of resveratrol were sonicated in each medium and 0.45 μm filtered to give clear solutions. Obtained solutions were autoclaved for 30 min at 121° C.

[5] = cited from earlier work
[6] = Solubility of resveratrol in water / aqueous solution after stirring at room temperature (general statements); type: physicochemical
Experimental: Concentrations of stilbenoid in the present invention are measured after 1 hour stirring at room temperature, which is preferably 20-23° C., more preferably 22°. So, stilbenoid concentrations correspond to measured solubility after 1 hour stirring at room temperature. Concentration is measured in aqueous solution, comprising the stilbenoid and the at least one saccharide. If not specifically indicated, or if not specifically indicated otherwise, the time of stirring is one hour. In some cases, other stirring times are indicated, such as 12 hours. […] With increasing concentrations of saccharides, less variations were observed. This is highly beneficial for pharmacological formulations.
(§2) Solubility measurements after 1 hour stirring at RT generated some variability in-between measurement series, which might be due to low temperature variations, back-ground measurements and experimental imprecisions. […] The here calculated factors of increase of solubility are therefore to be considered as conservative.

[7] = Solubility after one hour stirring at RT as a function of saccharide concentration in H2O (Examples 5-9); type: physicochemical; conditions: 24% N-acetylglucosamin in H2O, 1 hour stirring RT
Experimental: as §2
Solubility of Resveratrol after one hour stirring at RT, as a function of the concentration of Maltose, Maltotriose, Isomaltotriose, and Maltotetraose in H2O. Solubility was measured after one hour stirring at room temperature, in presence of excess solute, followed by filtering. […] Concentration of Maltose and maltotriose of 7.5% increased solubility of the stilbenoid resveratrol by a factor higher than 6 and 3 respectively.
Solubility of Resveratrol after one hour stirring at RT, as a function of the concentration of Maltodextrin DE 16-19 (DE═dextrose equivalents), Maltodextrin DE 4-7 or Icodextrin in H2O. Solubility was measured after one hour stirring at room temperature, in presence of excess solute, followed by filtering.
Solubility of Resveratrol after one hour stirring at RT, as a function of the concentration of Dextran 2.5-4 kD, Dextran 10 kD, Glycogen 100 kD, and Pullulan 100-200 kD, in H2O. Solubility was measured after one hour stirring at room temperature, in presence of excess solute, followed by filtering. […]

Compound	stabilization by pH [1]	P in Medium B found ([2]; stirring time 60 min) [mg/L]	P in Medium B found ([2]; stirring time 12 h) [mg/L]	P in Medium E found ([2]; stirring time 60 min) [mg/L]	P in Medium E found ([2]; stirring time 12 h) [mg/L]	P in Medium F found ([2]; stirring time 60 min) [mg/L]	P in Medium F found ([2]; stirring time 12 h) [mg/L]	stability of solubilized piceid over stirring time ([2]; commercial dialysis solutions, between 1 and 12 hours stirring)	effect of pH3 versus pH7 on solubility [3]	stability on heat sterilization ([4]; pH 3 adjusted Extraneal solution, heat sterilization)	stability during standard heat-sterilization ([4]; saccharide containing dialysis solutions at pH3, specifically in presence of 7.5% Icodextrin)	referred absolute solubility of Resveratrol in aqueous solution [5]	solubility at 1 h ([6]; 22 °C, thermodynamic from solid, after 1 hour stirring, distilled water, variation between measurements) [µg/mL]	concentration of resveratrol after 12 hours ([6]; 12 hours stirring)	increase of concentration [7] [times]	solubility relative to referred absolute solubility (approximately 30 mg/L) ([2]; 7.5% Icodextrin (Medium E), 12 hours stirring)
OC[C@H]1O[C@@H](Oc2cc(O)cc(/C=C/c3ccc(O)cc3)c2)[C@H](O)[C@@H](O)[C@@H]1O [Piceid, resveratrol-3-O-β-mono-D-glucoside]	significantly stabilize	485.6	342.9	1585.5	1370.3	493.8	461.4	stable between 1 and 12 hours	slightly increases solubility							
Oc1ccc(/C=C/c2cc(O)cc(O)c2)cc1 [Resveratrol, trans-3,5,4′-trihydroxystilbene]	significantly stabilize								slightly increases solubility	without degradation	remarkably high	approximately 30 mg/L	1 to 6.5 (≈ 4.38 to 28.5 µM)	above 24 mg/L	12	about 4 times
